{"source": "patent US11096924B2", "about": "“Combination therapies using immuno-dash inhibitors and PGE2 antagonists” (Trustees of Tufts College, priority 2016, dated 2021)", "key": {"[1]": {"molecular_target": "recombinant human dipeptidyl peptidase II (DPPII) (Homo sapiens (Human), UniProt Q9UHL4)", "assay": "In vitro inhibition assay, dipeptidyl peptidase II", "assay_type": "biochemical", "settings": "DPP2"}, "[2]": {"test_system": "macrophages", "assay": "Pyroptosis of macrophages in cell culture", "assay_type": "cell-based", "settings": "Macrophage; Example 2 table; unit inferred"}, "[3]": {"molecular_target": "DPP7 (Homo sapiens (Human), UniProt Q9UHL4)", "assay": "EnPlex assay DPP7", "assay_type": "biochemical"}, "[4]": {"test_system": "G-CSF"}, "[5]": {"molecular_target": "DPP4 (Homo sapiens (Human), UniProt P27487)", "sequence (P27487 whole entry)": "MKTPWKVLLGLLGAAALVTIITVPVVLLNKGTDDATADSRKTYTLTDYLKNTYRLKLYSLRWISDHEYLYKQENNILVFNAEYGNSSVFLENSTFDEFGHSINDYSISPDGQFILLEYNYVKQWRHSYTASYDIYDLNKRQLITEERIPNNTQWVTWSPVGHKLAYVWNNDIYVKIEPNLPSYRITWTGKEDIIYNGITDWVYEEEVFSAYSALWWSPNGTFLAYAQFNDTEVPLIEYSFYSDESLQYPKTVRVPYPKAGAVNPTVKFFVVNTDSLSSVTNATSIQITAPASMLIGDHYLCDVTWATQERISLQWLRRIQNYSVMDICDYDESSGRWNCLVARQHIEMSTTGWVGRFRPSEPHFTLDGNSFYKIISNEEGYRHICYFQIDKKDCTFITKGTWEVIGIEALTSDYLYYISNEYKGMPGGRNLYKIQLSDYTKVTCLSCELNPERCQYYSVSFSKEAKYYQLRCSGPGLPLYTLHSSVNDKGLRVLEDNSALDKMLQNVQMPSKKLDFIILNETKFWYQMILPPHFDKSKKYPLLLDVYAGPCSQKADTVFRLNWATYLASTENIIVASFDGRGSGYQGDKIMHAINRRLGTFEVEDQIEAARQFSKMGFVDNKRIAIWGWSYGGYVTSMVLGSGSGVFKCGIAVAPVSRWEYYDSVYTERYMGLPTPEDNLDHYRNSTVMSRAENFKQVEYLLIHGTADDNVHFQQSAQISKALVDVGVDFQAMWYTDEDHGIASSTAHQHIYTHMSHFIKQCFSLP", "assay": "EnPlex assay DPP4", "assay_type": "biochemical"}, "[6]": {"assay": "Oral PK profile in mice, plasma drug concentrations", "assay_type": "in vivo, BALB/c mice", "settings": "3 mg/kg oral gavage, individual mice #1-#3", "method": "Example 8. […] Drugs dissolved in pH 2 water at 0.3 mg/mL. […] 2. Plasma prepared by centrifugation. 3. Drug concentrations measured by LCMS."}, "[7]": {"molecular_target": "recombinant human dipeptidyl peptidase IV (DPPIV) (Homo sapiens (Human), UniProt P27487)", "sequence (P27487 whole entry)": "as above", "assay": "In vitro inhibition assay, dipeptidyl peptidase IV", "assay_type": "biochemical"}, "[8]": {"test_system": "MB49 murine urothelial carcinoma cell line", "assay": "MB49 efficacy studies in tumor bearing mice", "assay_type": "in vivo", "settings": "celecoxib alone, various concentrations, versus vehicle"}}, "note": "“And” between values parts separate entries of the source, which are not always exact repeats. Equal entries are not always repeated. Where two headings read alike, the source gives them in different places."}
{"smiles": "CC1(C)CCN[C@@H]1C(=O)N1CCC[C@H]1B(O)O", "note": "(relative stereo) [compound 5363]", "values": [{"measurement": "IC50", "setting": "[1]", "result": 110, "unit": "nM"}]}
{"smiles": "CC(C)[C@H](N)C(=S)N1CCC[C@H]1B(O)O", "note": "[compound 2401]", "values": [{"measurement": "IC50", "setting": "[2]", "result": "> 20000", "unit": "nM"}]}
{"smiles": "CC1([C@H](N)C(=O)N2CCC[C@H]2B(O)O)CCCCC1", "note": "(relative stereo) [ARI-4175CH]", "values": [{"measurement": "IC50", "setting": "[3]", "result": "> 100", "unit": "nM"}, {"measurement": "Average [G-CSF] at 6 hrs", "setting": "[4]; 5 μg/animal PO", "result": 1100, "unit": "pg/mL"}, {"measurement": "Average [G-CSF] at 6 hrs", "setting": "[4]; 20 μg/animal PO", "result": 51000, "unit": "pg/mL"}, {"measurement": "Average [G-CSF] at 6 hrs", "setting": "[4]; 20 μg/animal SC", "result": 60000, "unit": "pg/mL"}, {"measurement": "IC50", "setting": "[5]", "result": 0.005, "unit": "nM"}, {"measurement": "IC50", "setting": "[1]", "result": 54, "unit": "nM"}, {"measurement": "concentration in Plasma", "setting": "[6]; 5 min post-dose", "result": "230 nM and 420 nM"}, {"measurement": "concentration in Plasma", "setting": "[6]; 10 min post-dose", "result": "250 nM and 90 nM"}, {"measurement": "concentration in Plasma", "setting": "[6]; 20 min post-dose", "result": "230 nM and 270 nM"}, {"measurement": "concentration in Plasma", "setting": "[6]; 30 min post-dose", "result": 130, "unit": "nM"}, {"measurement": "concentration in Plasma", "setting": "[6]; 40 min post-dose", "result": "250 nM and 190 nM"}, {"measurement": "concentration in Plasma", "setting": "[6]; 60 min post-dose", "result": "0 nM and 90 nM"}, {"measurement": "concentration in Plasma", "setting": "[6]; 120 min post-dose", "result": "70 nM and 90 nM"}, {"measurement": "concentration in Plasma", "setting": "[6]; 240 min post-dose", "result": 10, "unit": "nM"}, {"measurement": "concentration at 5 min", "setting": "[6]; male, BALB/c, mouse, plasma, oral, 3 mg/kg, 5 min post-dose", "result": 280, "unit": "nM"}, {"measurement": "concentration at 20 min", "setting": "[6]; male, BALB/c, mouse, plasma, oral, 3 mg/kg, 20 min post-dose", "result": 230, "unit": "nM"}, {"measurement": "concentration at 30 min", "setting": "[6]; male, BALB/c, mouse, plasma, oral, 3 mg/kg, 30 min post-dose", "result": 240, "unit": "nM"}, {"measurement": "concentration at 40 min", "setting": "[6]; male, BALB/c, mouse, plasma, oral, 3 mg/kg, 40 min post-dose", "result": 170, "unit": "nM"}, {"measurement": "concentration at 120 min", "setting": "[6]; male, BALB/c, mouse, plasma, oral, 3 mg/kg, 120 min post-dose", "result": 70, "unit": "nM"}, {"measurement": "concentration at 240 min", "setting": "[6]; male, BALB/c, mouse, plasma, oral, 3 mg/kg, 240 min post-dose", "result": 10, "unit": "nM"}, {"measurement": "IC50", "setting": "[7]", "result": 2.8, "unit": "nM"}]}
{"smiles": "CC(C)(F)[C@H](N)C(=O)N1CCC[C@H]1B(O)O", "note": "(relative stereo) [ARI-4268]", "values": [{"measurement": "IC50", "setting": "[1]", "result": 68, "unit": "nM"}, {"measurement": "IC50", "setting": "[7]", "result": 12, "unit": "nM"}]}
{"smiles": "CC1([C@H](N)C(=O)N2CCC[C@H]2B(O)O)CCCC1", "note": "(relative stereo) [4175CP]", "values": [{"measurement": "IC50", "setting": "[1]", "result": 9.2, "unit": "nM"}, {"measurement": "IC50", "setting": "[7]", "result": 2.9, "unit": "nM"}]}
{"smiles": "CC[C@H](C)[C@H](N)C(=O)N1CCC[C@H]1B(O)O", "note": "[compound 4316, theoric-boroPro]", "values": [{"measurement": "Average [G-CSF] at 6 hrs", "setting": "[4]; 20 μg/animal PO", "result": 5000, "unit": "pg/mL"}, {"measurement": "IC50", "setting": "[2]", "result": 21, "unit": "nM"}]}
{"smiles": "C[C@H](N)C(=O)N1CCC[C@H]1B(O)O", "note": "[compound 1129]", "values": [{"measurement": "IC50", "setting": "[2]", "result": "> 10000", "unit": "nM"}]}
{"smiles": "CC[C@@H](C)[C@H](N)C(=O)N1CCC[C@H]1B(O)O", "note": "[compound 4317]", "values": [{"measurement": "IC50", "setting": "[2]", "result": 13, "unit": "nM"}]}
{"smiles": "Cc1ccc(-c2cc(C(F)(F)F)nn2-c2ccc(S(N)(=O)=O)cc2)cc1", "note": "[celecoxib]", "values": [{"measurement": "tumor growth rates", "setting": "[8]", "result": "no observed differences in tumor growth rates compared to control"}]}
{"smiles": "N[C@H](C(=O)N1CCC[C@H]1B(O)O)C12CC3CC(CC(Cl)(C3)C1)C2", "note": "(relative stereo) [ARI-3102C]", "values": [{"measurement": "IC50", "setting": "[5]", "result": 0.006, "unit": "nM"}, {"measurement": "IC50", "setting": "[7]", "result": 6, "unit": "nM"}]}
{"smiles": "C[C@H](N)C(=S)N1CCC[C@H]1B(O)O", "note": "[ARI-2243]", "values": [{"measurement": "Average [G-CSF] at 6 hrs", "setting": "[4]; 20 μg/animal PO", "result": 330, "unit": "pg/mL"}, {"measurement": "Average [G-CSF] at 6 hrs", "setting": "[4]; 50 μg/animal IP", "result": 2100, "unit": "pg/mL"}, {"measurement": "Average [G-CSF] at 6 hrs", "setting": "[4]; 100 μg/animal IP", "result": 2400, "unit": "pg/mL"}, {"measurement": "Average [G-CSF] at 6 hrs", "setting": "[4]; 300 μg/animal IP", "result": 4400, "unit": "pg/mL"}, {"measurement": "IC50", "setting": "[2]", "result": 11000, "unit": "nM"}]}
{"smiles": "CN(CB(O)O)C(=O)[C@@H](N)CCC(=O)O", "note": "[compound 2408]", "values": [{"measurement": "IC50", "setting": "[2]", "result": "> 10000", "unit": "nM"}]}
{"smiles": "N[C@@H](CCC(=O)O)C(=O)N1CCC[C@H]1B(O)O", "note": "[compound 8120, Glu-boroPro]", "values": [{"measurement": "Average [G-CSF] at 6 hrs", "setting": "[4]; 20 μg/animal PO", "result": 340, "unit": "pg/mL"}, {"measurement": "Average [G-CSF] at 6 hrs", "setting": "[4]; 200 μg/animal PO", "result": 160, "unit": "pg/mL"}, {"measurement": "Average [G-CSF] at 6 hrs", "setting": "[4]; 200 μg/animal SC", "result": 210, "unit": "pg/mL"}, {"measurement": "Average [G-CSF] at 6 hrs", "setting": "[4]; 2000 μg/animal PO", "result": 2300, "unit": "pg/mL"}, {"measurement": "Average [G-CSF] at 6 hrs", "setting": "[4]; 2000 μg/animal SC", "result": 16000, "unit": "pg/mL"}]}
